Data reported in patent US20110009263A1, “SELECTED SALTS OF 3-(5,6-DIHYDRO-1,4,2-DIOXAZIN-3-YL)-N-[(4,6-DIMETHOXYPYRIMIDIN-2-YL)CARBAMOYL]PYRIDINE-2-SULFONAMIDE, METHOD FOR THE PRODUCTION THEREOF, AND USE THEREOF AS HERBICIDES AND PLANT GROWTH REGULATORS” (priority 2008, published 2011).

Legend:
Format in all cases: in vivo
Stellaria media = details: pre-emergence, application rate of 0.08 kg or less of active substance per hectare, 3 to 4 weeks
Excerpt: (§1) Seeds or rhizome pieces of mono- and dicotyledonous weeds were placed in sandy loam in cardboard pots and covered with soil. The compounds according to the invention, formulated in the form of wettable powders or emulsion concentrates, were then applied to the surface of the covering soil in the form of aqueous suspensions or emulsions at an application rate of 100 to 800 l of water/ha (converted), at various dosages.
(§2) After the treatment, the pots were placed in a greenhouse and kept under good growth conditions for the weeds. The visual scoring of the damage to the plants or the emergence damage was carried out after the emergence of the test plants after a test period of 3 to 4 weeks, by comparison with untreated controls. As shown by the results, the compounds according to the invention have good herbicidal pre-emergence activity against a broad spectrum of weed grasses and broad-leaved weeds.

Papaver rhoeas = details: pre-emergence, application rate of 0.08 kg or less of active substance per hectare, 3 to 4 weeks
Excerpt: as §1, §2

Matricaria inodora = details: pre-emergence, application rate of 0.08 kg or less of active substance per hectare, 3 to 4 weeks
Excerpt: as §1, §2

Viola tricolor = details: pre-emergence, application rate of 0.08 kg or less of active substance per hectare, 3 to 4 weeks
Excerpt: as §1, §2

Eleusine indica = details: for ELEIN (post-emergence herbicidal action score): 2-4 leaf stage, 5 g of a.i./ha, scored after four weeks, 0=no damage, 100=complete control
Experimental: (§3) Seeds or rhizome pieces of monocotyledonous and dicotyledonous weeds were placed in sandy loam in plastic pots (Jiffy pots), covered with soil and cultivated in a greenhouse under good and defined growth conditions, i.e. at a day/night rhythm of 22° C./14° C. At the 2-4 leaf stage, the plants were then treated with an aqueous test solution of various compounds according to the invention at the stated dosage. After four weeks, the tests were scored according to the scheme below:
(§4) 0=no damage; 100=complete control
(§5) The control used was the Na^+ salt of 3-(5,6-dihydro-1,4,2-dioxazin-3-yl)-N-[(4,6-dimethoxypyrimidin-2-yl)carbamoyl]pyridine-2-sulfonamide which is already known from U.S. Pat. No. 5,476,936.

Ambrosia elatior = details: for AMBEL (post-emergence herbicidal action score): 2-4 leaf stage, 5 g of a.i./ha, scored after four weeks, 0=no damage, 100=complete control
Experimental: as §3, §4, §5

Molecule	herbicidal activity against Stellaria media (Stellaria media)	herbicidal activity against Papaver rhoeas (Papaver rhoeas)	herbicidal activity against Matricaria inodora (Matricaria inodora)	herbicidal activity against Viola tricolor (Viola tricolor)	ELEIN (post-emergence herbicidal action score) (Eleusine indica)	AMBEL (post-emergence herbicidal action score) (Ambrosia elatior)	control of Ambrosia elatior (Ambrosia elatior; post-emergence) [%]	controlling action against the monocotyledonous weed Eleusine indica (in words) (Eleusine indica; post-emergence)	effectiveness against the dicotyledonous weed Ambrosia elatior (in words) (Ambrosia elatior; post-emergence)
2-hydroxy-N,N,N-trimethylethanaminium {[3-(5,6-dihydro-1,4,2-dioxazin-3-yl)pyridin-2-yl]sulfonyl}[(4,6-dimethoxypyrimidin-2-yl)carbamoyl]azanide [Compound I-38]	very good herbicidal activity	very good herbicidal activity	very good herbicidal activity	very good herbicidal activity	85	80			
COc1cc(OC)nc(NC(=O)NS(=O)(=O)c2ncccc2C2=NOCCO2)n1.N [Compound I-5, Ammonium {[3-(5,6-dihydro-1,4,2-dioxazin-3-yl)pyridin-2-yl]sulfonyl}[(4,6-dimethoxypyrimidin-2-yl)carbamoyl]azanide]	very good herbicidal activity	very good herbicidal activity	very good herbicidal activity	very good herbicidal activity	80	75	≥ 75		
2-Hydroxy-N-(2-hydroxyethyl)ethanaminium {[3-(5,6-dihydro-1,4,2-dioxazin-3-yl)pyridin-2-yl]sulfonyl}[(4,6-dimethoxypyrimidin-2-yl)carbamoyl]azanide [Compound I-35]	very good herbicidal activity	very good herbicidal activity	very good herbicidal activity	very good herbicidal activity	80	85			
2-Chloro-N,N,N-trimethylethanaminium {[3-(5,6-dihydro-1,4,2-dioxazin-3-yl)pyridin-2-yl]sulfonyl}[(4,6-dimethoxypyrimidin-2-yl)carbamoyl]azanide [Compound I-39]	very good herbicidal activity	very good herbicidal activity	very good herbicidal activity	very good herbicidal activity	93	80			
COc1cc(OC)nc(NC(=O)[N-]S(=O)(=O)c2ncccc2C2=NOCCO2)n1.[K+] [Compound I-2, Potassium {[3-(5,6-dihydro-1,4,2-dioxazin-3-yl)pyridin-2-yl]sulfonyl}[(4,6-dimethoxypyrimidin-2-yl)carbamoyl]azanide]	very good herbicidal activity	very good herbicidal activity	very good herbicidal activity	very good herbicidal activity	80	80			
COc1cc(OC)nc(NC(=O)[N-]S(=O)(=O)c2ncccc2C2=NOCCO2)n1.[Li+] [Compound I-1, Lithium {[3-(5,6-dihydro-1,4,2-dioxazin-3-yl)pyridin-2-yl]sulfonyl}[(4,6-dimethoxypyrimidin-2-yl)carbamoyl]azanide]	very good herbicidal activity	very good herbicidal activity	very good herbicidal activity	very good herbicidal activity	85	80			
2-(Acetyloxy)-N,N,N-trimethylethanaminium {[3-(5,6-dihydro-1,4,2-dioxazin-3-yl)pyridin-2-yl]sulfonyl}[(4,6-dimethoxypyrimidin-2-yl)carbamoyl]azanide [Compound I-40]	very good herbicidal activity	very good herbicidal activity	very good herbicidal activity	very good herbicidal activity	93	80			
CC(C)N.COc1cc(OC)nc(NC(=O)NS(=O)(=O)c2ncccc2C2=NOCCO2)n1 [Compound I-14, Propan-2-aminium {[3-(5,6-dihydro-1,4,2-dioxazin-3-yl)pyridin-2-yl]sulfonyl}[(4,6-dimethoxypyrimidin-2-yl)carbamoyl]azanide]	very good herbicidal activity	very good herbicidal activity	very good herbicidal activity	very good herbicidal activity	80	90			
COc1cc(OC)nc(NC(=O)NS(=O)(=O)c2ncccc2C2=NOCCO2)n1.[Na] [control, Na^+ salt of 3-(5,6-dihydro-1,4,2-dioxazin-3-yl)-N-[(4,6-dimethoxypyrimidin-2-yl)carbamoyl]pyridine-2-sulfonamide, reference compound]					75	20		good controlling action	controlled relatively weakly
